Columns and labels:
[1] = tested on: HIV-1 vector (DHIV-GFP) in activated CD4+ T cells; assay: HIV-GFP vector transduction of activated CD4+ T cells (GFP FACS); type: cell-based; conditions: rACT 0.1 and 1 mM, activated CD4+ T cells compared to macrophages
Experimental: Next, rACT was evaluated for its ability to inhibit HIV-1 replication in non-dividing cells. The transduction efficiency of an HIV-1 vector in primary human macrophages in the presence and absence of rACT was measured. Human macrophages, which were prepared from multiple donors, were pre-incubated with various concentrations of rACT, and then transduced with an HIV vector (D3-GFP), which expressed all HIV-1 proteins except Env and Nef (replaced with eGFP). Virus infectivity was determined by FACS analysis for GFP expression at 7 days post infection. […] Finally, the effect of rACT on HIV-1 infection in activated CD4^+ T cells was examined.
(§3) Dideoxy uracil triphosphate (ddUTP) was assessed for its ability to inhibit viral reverse transcription in non-dividing cells. Primary human macrophages and CD4^+ T-cells were isolated from human buffy coats and pretreated with ddUTP. The treated cells were then transduced with a single round of VSV-G pseudotyped HIV-1 vector D3-HIV in the presence of various concentrations of drug.
rACT was tested in T cells as follows, human primary activated CD4^+ T cells (2.5×10^5) cells isolated from two donors were pre-treated with 0, 0.1, and 1 mM rACT for 4 hours, and then the cells were transduced with DHIV-GFP. The transduced cells were fixed at 48 hours post transduction, and analyzed by FACS for determining the percent of GFP cells. […]

[2] = tested on: human primary macrophages; assay: Toxicity of rNCTs in macrophages, propidium iodide-based FACS; type: cell-based; conditions: 0.5, 1 and 2 mM, 7 days
Experimental: Human primary macrophages were incubated in the presence or absence of rACT, rCCT, rGCT, or rUCT (0.5, 1 and 2 mM) for 7 days, and the percent of live cells (cell survival rate) were determined by propidium iodide-based FACS. FIG. 12 includes a graph of cell survival rate with each rNCTP.
The continuous HIV-1 culture system in human primary macrophages was also employed to evaluate the toxicity of rNCTs in nondividing cells. Human primary macrophages were incubated in the presence or absence of each rNCT (0.5, 1 and 2 mM) for 7 days, and the percentage of live cells (cell survival rate) were determined by propidium iodide-based FACS.

[3] = tested on: CHME5 cells; assay: Cytotoxicity of rACT, FACS/trypan blue; type: cell-based, human; conditions: concentrations up to 1 mM, 2 days
Experimental: (§1) FIGS. 6A-6E show inhibition of HIV-1 reverse transcription by 3′ deoxyadenosine chain terminator (rACT) in human primary macrophages and its cytotoxicity. FIG. 6A includes a graph showing the cytotoxicity of rACT in human primary CD4^+ T cells, U937 cells, and CHME5 cells. These three types of cells were cultured and treated with different concentrations of rACT (up to 1 mM) for 2 days, and the percentage of live and dead cells were determined by FACS and/or trypan blue staining. The percentage of the live cells in the absence of rACT was used for normalization (100%), and the base line cell death of these cell types in the absence of rACT were less than 5%. FIG. 6B includes FACS results. […] The percentages of GFP positive macrophages and PI positive cells in a representative donor, which were determined by FACS at 7 days post transduction, are shown. […] Genomic DNAs were extracted from the transduced macrophages in FIG. 6B, and were used in a quantitative 2LTR circle PCR assay. Viral production was determined by p24 ELISA with the collected media. […]
(§2) First, the cytotoxicity of rACT in human primary CD4^+ T cells, human primary macrophages, human microglial CHME5, and human premonocytic U937 cell lines was assessed. Cells were incubated with different concentrations of rACT (up to 1 mM) for 2 days, and cell survival was determined. […]

[4] = tested on: U937 cells; assay: Cytotoxicity of rACT, FACS/trypan blue; type: cell-based, human; conditions: concentrations up to 1 mM, 2 days
Experimental: as §1, §2

[5] = tested on: human primary CD4+ T cells; assay: Cytotoxicity of rACT, FACS/trypan blue; type: cell-based; conditions: concentrations up to 1 mM, 2 days
Experimental: as §1, §2

[6] = tested on: HIV-1 vector (D3-GFP) in primary human macrophages; assay: HIV-GFP vector transduction of primary macrophages (GFP FACS); type: cell-based; conditions: rACT 0.1 and 1 mM, 7 days post infection, versus no treatment
Experimental: Human primary macrophages were preincubated with different concentrations of rACT (0, 10, 100 and 100 μM) for 24 hours and then transduced with HIV-GFP vector (equal p24 amounts). The percentages of GFP positive macrophages and PI positive cells in a representative donor, which were determined by FACS at 7 days post transduction, are shown. […] These experiments were performed in triplicate from three different blood donors.
Primary human macrophages were pretreated with ddUTP and transduced with a single round VSV-G pseudotyped HIV-1 vector (D3HIV). […] FIG. 10B is a graph showing the results from flow cytometry analysis of the transduced cells.
Next, rACT was evaluated for its ability to inhibit HIV-1 replication in non-dividing cells. The transduction efficiency of an HIV-1 vector in primary human macrophages in the presence and absence of rACT was measured. Human macrophages, which were prepared from multiple donors, were pre-incubated with various concentrations of rACT, and then transduced with an HIV vector (D3-GFP), which expressed all HIV-1 proteins except Env and Nef (replaced with eGFP). Virus infectivity was determined by FACS analysis for GFP expression at 7 days post infection.
Dideoxy uracil triphosphate (ddUTP) was assessed for its ability to inhibit viral reverse transcription in non-dividing cells. […]

[7] = tested on: HIV-1 2-LTR DNA circles (proviral DNA synthesis) in macrophages; assay: Quantitative 2LTR circle PCR in transduced macrophages; type: cell-based; conditions: rACT 0.1 and 1 mM, macrophages
Experimental: Human macrophages, which were prepared from multiple donors, were pre-incubated with various concentrations of rACT, and then transduced with an HIV vector (D3-GFP), which expressed all HIV-1 proteins except Env and Nef (replaced with eGFP).
as §3
Equal p24 level of the produced vector was used for infecting human macrophages pre-incubated with different concentrations of rACT (RI Chemicals, CA) for 12 hours. For ddUTP, the produced vector was pre-incubated for at least two hours. One half of the harvested cells were used for determining the percentages of the GFP expressing and/or propidium iodide (PI) stained cells by FACS at 7 days post infection. All cells used to asses transduction efficiency were gated or stained with propidium iodide to assure live cells were measured. The remaining cells were used for the extraction of genomic DNA. Quantitative 2LTR circle PCR assay using real-time PCR was normalized by total genomic DNA (Biorad, Hercules, Calif.).

In the case of Nc1ncnc2c1ncn2[C@@H]1O[C@H](CO)C[C@H]1O [rACT, 3′-deoxyadenosine], the “inhibitory effect on HIV-1 infection (GFP positive cells)” value [1] is reported as “less of an inhibitory effect”, the “cytotoxicity (cell survival rate)” value [2] is reported as “no significant cytotoxicity” and the cytotoxicity [3] is reported as “no significant cytotoxicity”. For the same molecule, the cytotoxicity [4] was “no significant cytotoxicity”, the cytotoxicity [5] was “no significant cytotoxicity” and the “percent of macrophages expressing GFP” value [6] was “reduced the percent of macrophages expressing GFP”. The “2-LTR circle copy number” value [7] was “substantially reduced the 2-LTR circle copy number”.

— patent US9289445B2, “Compositions and methods for treating or preventing a retrovirus infection” (University of Rochester, priority 2011, dated 2016)
